# Experiments:
# Test in all cases: relative viability (nuclei count vs DMSO), 5 days (fraction); higher = more cells survive
# [1] = system: 201T
# Outline: (§1)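 After 5 days of treatment, lung cancer cells in 1536-well plates were fixed and stained in a single step (final 0.05% Triton X-100, 1% formaldehyde, 1 ug/ml Hoechst) and their nuclei counted on 4× images. Treatment had been applied by pin tool the day after seeding as one drug alone or as a fixed anchor-drug dose with five library-drug doses (not always all listed) in √10 steps. Relative viability is the nuclei count of treated wells divided by that of vehicle wells, and values are medians of duplicate plates.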
# [2] = system: NCI-H322M
# Outline: as §1
# [3] = system: H3255
# Outline: as §1
# [4] = system: LK-2
# Outline: as §1
# [5] = system: NCI-H596
# Outline: as §1
# [6] = system: NCI-H2087
# Outline: as §1
# [7] = system: NCI-H2170
# Outline: as §1
# [8] = system: NCI-H2126
# Outline: as §1
# [9] = system: LXF-289
# Outline: as §1
# [10] = system: CAL-12T
# Outline: as §1
# [11] = system: NCI-H441
# Outline: as §1
# [12] = system: EMC-BAC-2
# Outline: as §1
# [13] = system: NCI-H1755
# Outline: as §1
# [14] = system: NCI-H2009
# Outline: as §1
# [15] = system: NCI-H647
# Outline: as §1
# [16] = system: HOP-62
# Outline: as §1
# [17] = system: NCI-H1651
# Outline: as §1
# [18] = system: NCI-H1734
# Outline: as §1
# [19] = system: NCI-H1563
# Outline: as §1
# [20] = system: ABC-1
# Outline: as §1
compound,measurement,setting,value
COCC1(CO)C(=O)C2CCN1CC2 (stereo not drawn) [PRIMA-1MET] + C[C@@H](Oc1cc(-c2cnn(C3CCNCC3)c2)cnc1N)c1c(Cl)ccc(F)c1Cl [Crizotinib] (partner 1 µM),relative viability,[1]; first compound 0.2 µM,1.11
same,relative viability,[1]; first compound 0.6325 µM,1
same,relative viability,[1]; first compound 2 µM,0.901
same,relative viability,[1]; first compound 6.325 µM,1.06
same,relative viability,[1]; first compound 20 µM,1.04
same,relative viability,[2]; first compound 0.2 µM,0.75
same,relative viability,[2]; first compound 6.325 µM,0.991
same,relative viability,[2]; first compound 20 µM,0.82
same,relative viability,[3]; first compound 0.2 µM,0.898
same,relative viability,[3]; first compound 0.6325 µM,0.682
same,relative viability,[3]; first compound 2 µM,0.77
same,relative viability,[3]; first compound 6.325 µM,0.991
same,relative viability,[3]; first compound 20 µM,0.898
same,relative viability,[4]; first compound 0.2 µM,0.221
same,relative viability,[4]; first compound 0.6325 µM,0.182
same,relative viability,[4]; first compound 2 µM,0.22
same,relative viability,[4]; first compound 6.325 µM,0.255
same,relative viability,[4]; first compound 20 µM,0.18
same,relative viability,[5]; first compound 0.2 µM,1.08
same,relative viability,[5]; first compound 0.6325 µM,0.962
same,relative viability,[5]; first compound 2 µM,0.863
same,relative viability,[5]; first compound 6.325 µM,1.04
same,relative viability,[5]; first compound 20 µM,0.174
same,relative viability,[6]; first compound 0.2 µM,0.949
same,relative viability,[6]; first compound 0.6325 µM,0.751
same,relative viability,[6]; first compound 2 µM,0.474
same,relative viability,[6]; first compound 6.325 µM,0.794
same,relative viability,[6]; first compound 20 µM,0.805
same,relative viability,[7]; first compound 0.2 µM,1.38
same,relative viability,[7]; first compound 0.6325 µM,1.13
same,relative viability,[7]; first compound 2 µM,1.02
same,relative viability,[7]; first compound 6.325 µM,1.26
same,relative viability,[7]; first compound 20 µM,1.21
same,relative viability,[8]; first compound 0.2 µM,1.08
same,relative viability,[8]; first compound 0.6325 µM,1.02
same,relative viability,[8]; first compound 2 µM,0.957
same,relative viability,[8]; first compound 6.325 µM,1.04
same,relative viability,[8]; first compound 20 µM,1.04
same,relative viability,[9]; first compound 0.2 µM,0.81
same,relative viability,[9]; first compound 0.6325 µM,0.869
same,relative viability,[9]; first compound 2 µM,0.871
same,relative viability,[9]; first compound 6.325 µM,0.815
same,relative viability,[9]; first compound 20 µM,0.767
same,relative viability,[10]; first compound 0.2 µM,0.788
same,relative viability,[10]; first compound 0.6325 µM,0.834
same,relative viability,[10]; first compound 2 µM,0.687
same,relative viability,[10]; first compound 6.325 µM,0.661
same,relative viability,[10]; first compound 20 µM,0.283
same,relative viability,[11]; first compound 0.2 µM,0.934
same,relative viability,[11]; first compound 0.6325 µM,0.78
same,relative viability,[11]; first compound 2 µM,0.646
same,relative viability,[11]; first compound 6.325 µM,0.663
same,relative viability,[11]; first compound 20 µM,0.362
same,relative viability,[12]; first compound 0.2 µM,0.837
same,relative viability,[12]; first compound 0.6325 µM,0.779
same,relative viability,[12]; first compound 2 µM,0.666
same,relative viability,[12]; first compound 6.325 µM,0.771
same,relative viability,[12]; first compound 20 µM,0.793
same,relative viability,[13]; first compound 0.2 µM,0.996
same,relative viability,[13]; first compound 0.6325 µM,0.825
same,relative viability,[13]; first compound 2 µM,0.826
same,relative viability,[13]; first compound 6.325 µM,0.915
same,relative viability,[13]; first compound 20 µM,0.81
same,relative viability,[14]; first compound 0.2 µM,0.99
same,relative viability,[14]; first compound 0.6325 µM,0.889
same,relative viability,[14]; first compound 2 µM,1.09
same,relative viability,[14]; first compound 6.325 µM,1.05
same,relative viability,[14]; first compound 20 µM,0.295
same,relative viability,[15]; first compound 0.2 µM,1
same,relative viability,[15]; first compound 0.6325 µM,1.24
same,relative viability,[15]; first compound 2 µM,1.09
same,relative viability,[15]; first compound 6.325 µM,1.08
same,relative viability,[15]; first compound 20 µM,0.896
same,relative viability,[16]; first compound 0.2 µM,0.999
same,relative viability,[16]; first compound 0.6325 µM,0.76
same,relative viability,[16]; first compound 2 µM,0.666
same,relative viability,[16]; first compound 6.325 µM,0.969
same,relative viability,[16]; first compound 20 µM,0.768
same,relative viability,[17]; first compound 0.2 µM,0.991
same,relative viability,[17]; first compound 0.6325 µM,0.788
same,relative viability,[17]; first compound 2 µM,0.741
same,relative viability,[17]; first compound 6.325 µM,0.955
same,relative viability,[17]; first compound 20 µM,0.888
same,relative viability,[18]; first compound 0.2 µM,0.696
same,relative viability,[18]; first compound 0.6325 µM,0.573
same,relative viability,[18]; first compound 2 µM,0.614
same,relative viability,[18]; first compound 6.325 µM,0.677
same,relative viability,[18]; first compound 20 µM,0.171
same,relative viability,[19]; first compound 0.2 µM,0.887
same,relative viability,[19]; first compound 0.6325 µM,0.806
same,relative viability,[19]; first compound 2 µM,0.868
same,relative viability,[19]; first compound 6.325 µM,0.843
same,relative viability,[19]; first compound 20 µM,0.262
same,relative viability,[20]; first compound 0.2 µM,1.39
same,relative viability,[20]; first compound 0.6325 µM,1.22
same,relative viability,[20]; first compound 2 µM,0.945
same,relative viability,[20]; first compound 6.325 µM,0.908
same,relative viability,[20]; first compound 20 µM,0.555

# Reference: the supplement of paper PMC10307832
